Legend:
human JAK2 = target: T1, human JAK2 (Homo sapiens, UniProt O60674); assay: Alphascreen tyrosine kinase enzyme assay, JAK2 kinase domain; type: biochemical; conditions: read-out: JAK2 IC50_nM
T1 construct: The kinase domain of human JAK2 was amplified; GST (N); made in house; host or cells: Sf9 insect cells (baculovirus)
Summary of the method: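 JAK2 kinase domain expressed in baculovirus/Sf9 and glutathione-affinity purified. Compounds (final […]) pre-incubated 20 min with enzyme in 10 mM HEPES pH 7.5, MgCl2, NaCl, vanadate, 0.1% Tween 20.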

human JAK3 = target: T2, human JAK3 (Homo sapiens, UniProt P52333); assay: Alphascreen tyrosine kinase enzyme assay, JAK3 kinase domain; type: biochemical; conditions: read-out: JAK3 IC50_nM
T2 construct: The kinase domain of human JAK3 was amplified; GST (N); made in house; host or cells: Sf9 insect cells (baculovirus)
T2 sequence (P52333 822-1111 limits assumed): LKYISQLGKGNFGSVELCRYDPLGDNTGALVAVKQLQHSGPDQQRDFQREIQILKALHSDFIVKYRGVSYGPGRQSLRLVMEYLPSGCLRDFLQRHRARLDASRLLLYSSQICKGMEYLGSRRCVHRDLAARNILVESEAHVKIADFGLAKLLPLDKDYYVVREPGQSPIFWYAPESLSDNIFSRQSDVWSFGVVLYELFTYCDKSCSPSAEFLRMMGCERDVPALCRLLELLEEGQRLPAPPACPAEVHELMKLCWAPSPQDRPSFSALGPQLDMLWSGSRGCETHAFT
Summary of the method: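 GST-affinity-purified human JAK3 kinase domain (baculovirus/Sf9) was pre-incubated 20 min with compound ([…]) in HEPES pH 7.5 buffer with MgCl2, vanadate and Tween 20. Biotinylated peptide substrate ([…]) and ATP were then added; phosphotyrosine was detected by AlphaScreen PY100 acceptor and streptavidin donor beads after 2–3 h.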

BaF3 wild-type cells = assay: Cellular screening, BaF3 wild-type cells, Alamar Blue; type: cell-based; conditions: Mus musculus, 40 hr, read-out: BAF3wt IC50_nM
Summary of the method: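 Compounds, screened from dilution plates at 20 μM, were added as 10× final stocks to cells grown in DMEM/10% FCS/10% WEHI 3B conditioned medium. Cells were seeded at 1.1× final (50,000–200,000 cells/mL) and incubated 40 hr at 37° C, 5% CO2. Viability was read at 544 nm after a further 4–6 hours with Alamar Blue.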

T1 sequence (O60674 849-1124 limits assumed): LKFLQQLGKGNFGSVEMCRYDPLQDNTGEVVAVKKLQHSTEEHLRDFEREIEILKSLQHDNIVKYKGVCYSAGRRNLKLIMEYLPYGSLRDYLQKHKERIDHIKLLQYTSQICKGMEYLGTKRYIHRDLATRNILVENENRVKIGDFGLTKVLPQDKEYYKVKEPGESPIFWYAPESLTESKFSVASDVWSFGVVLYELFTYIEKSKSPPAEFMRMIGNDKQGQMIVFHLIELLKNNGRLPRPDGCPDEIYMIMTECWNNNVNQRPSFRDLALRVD

| SMILES | IC50 (human JAK2) | IC50 (human JAK3) | IC50 (BaF3 wild-type cells) |
| --- | --- | --- | --- |
| C=CC(=O)Nc1ccc(Sc2ccnc(Nc3cccc(C#N)c3)n2)cc1 [Compound 118, N-(4-(2-(3-cyanophenylao)pyrimidin-4-ylthio)phenyl)acrylamide] | > 1000 nM | < 100 nM | > 20000 nM |
| N#Cc1nccc(Sc2ccc(Sc3ccnc(Nc4ccc(N5CCOCC5)cc4)n3)cc2)n1 [Compound 154, 4-(4-(2-(4-morpholinophenylao)pyrimidin-4-ylthio)phenylthio)pyrimidine-2-carbonitrile] | > 1000 nM | < 500 nM | < 5000 nM |
| CC#CC(=O)Nc1ccc(Sc2nc(Nc3ccc(N4CCOCC4)cc3)ncc2C)cc1 [Compound 125, N-(4-(5-methyl-2-(4-morpholinophenylao)pyrimidin-4-ylthio)phenyl)but-2-ynamide] | > 1000 nM | < 100 nM | > 20000 nM |
| C=CC(=O)Nc1ccc(Sc2nc(Nc3ccc(O)cc3)ncc2C)cc1 [Compound 282, N-(4-(2-(4-hydroxyphenylao)-5-methylpyrimidin-4-ylthio)phenyl)acrylamide] | > 1000 nM | < 100 nM | < 20000 nM |
| C=CC(=O)Nc1ccc(Sc2ccnc(Nc3ccc(S(=O)(=O)N4CCOCC4)c(OC)c3)n2)cc1 [Compound 373, N-(4-(2-(3-methoxy-4-(morpholinosulfonyl)phenylao)pyrimidin-4-ylthio)phenyl)acrylamide] | > 1000 nM | < 100 nM | < 5000 nM |
| C=CC(=O)Nc1ccc(Sc2ccnc(Nc3cccc([N+](=O)[O-])c3)n2)cc1 [Compound 361, N-(4-(2-(3-nitrophenylao)pyrimidin-4-ylthio)phenyl)acrylamide] | > 1000 nM | < 100 nM | > 20000 nM |
| C=CC(=O)Nc1ccc(Sc2ccnc(Nc3ccc(S(=O)(=O)N4CCN(C)CC4)cc3)n2)cc1 [Compound 370, N-(4-(2-(4-(4-methylpiperazin-1-ylsulfonyl)phenylao)pyrimidin-4-ylthio)phenyl)acrylamide] | > 1000 nM | < 100 nM | < 20000 nM |
| CCOC(=O)c1nccn1Cc1ccc(Sc2ccnc(Nc3ccc(N4CCOCC4)cc3)n2)cc1 [Compound 148, ethyl 1-(4-(2-(4-morpholinophenylao)pyrimidin-4-ylthio)benzyl)-1H-imidazole-2-carboxylate] | > 1000 nM | < 500 nM | < 20000 nM |
| C=CC(=O)Nc1ccc(Sc2nc(Nc3ccc(N4CCOCC4)cc3)ncc2C)cc1 [Compound 124, N-(4-(5-methyl-2-(4-morpholinophenylao)pyrimidin-4-ylthio)phenyl)acrylamide] | > 1000 nM | < 100 nM | > 20000 nM |
| Cc1cnc(Nc2ccc(N3CCOCC3)cc2)nc1Sc1ccc(NC(=O)/C=C/C(=O)O)cc1 [Compound 387, (E)-4-(4-(5-methyl-2-(4-morpholinophenylao)pyrimidin-4-ylthio)phenylao)-4-oxobut-2-enoic acid] | < 1000 nM | < 100 nM | > 20000 nM |
| C=CC(=O)Nc1ccc(Sc2nc(Nc3ccc(OC)c(O)c3)ncc2C)cc1 [Compound 283, N-(4-(2-(3-hydroxy-4-methoxyphenylao)-5-methylpyrimidin-4-ylthio)phenyl)acrylamide] | > 1000 nM | < 100 nM | < 20000 nM |
| C=CC(=O)Nc1ccc(Sc2nc(Nc3ccc(N4CCC(C(=O)OCC)CC4)cc3)ncc2C)cc1 [Compound 292, ethyl 1-(4-(4-(4-acrylamidophenylthio)-5-methylpyrimidin-2-ylao)phenyl)piperidine-4-carboxylate] | > 1000 nM | < 100 nM | > 20000 nM |
| C=CC(=O)Nc1cccc(Nc2nccc(Sc3cccc(OC)c3)n2)c1 [Compound 31, N-(3-(4-(3-methoxyphenylthio)pyrimidin-2-ylao)phenyl)acrylamide] | > 1000 nM | < 100 nM | < 20000 nM |
| C=CC(=O)Nc1ccc(Sc2ccnc(Nc3cccc(S(=O)(=O)N4CCOCC4)c3)n2)cc1 [Compound 372, N-(4-(2-(3-(morpholinosulfonyl)phenylao)pyrimidin-4-ylthio)phenyl)acrylamide] | > 1000 nM | < 100 nM | < 5000 nM |
| CNC(=O)CCC(=O)Nc1ccc(Sc2nc(Nc3ccc(N4CCOCC4)cc3)ncc2C)cc1 [Compound 386, N1-methyl-N4-(4-(5-methyl-2-(4-morpholinophenylao)pyrimidin-4-ylthio)phenyl)succinamide] | > 1000 nM | < 500 nM | > 20000 nM |
| Cc1cnc(Nc2ccc(N3CCOCC3)cc2)nc1Sc1ccc(NC(=O)/C=C/Cl)cc1 [Compound 343, (E)-3-chloro-N-(4-(5-methyl-2-(4-morpholinophenylao)pyrimidin-4-ylthio)phenyl)acrylamide] | > 1000 nM | < 100 nM | < 20000 nM |

| SMILES | IC50 (human JAK2) | IC50 (human JAK3) | IC50 (BaF3 wild-type cells) |
| --- | --- | --- | --- |
| C=C(CN1CCOCC1)C(=O)Nc1cccc(Sc2ccnc(Nc3ccc(N4CCOCC4)cc3)n2)c1 [Compound 328, 2-(morpholinomethyl)-N-(3-(2-(4-morpholinophenylao)pyrimidin-4-ylthio)phenyl)acrylamide] | > 1000 nM | < 100 nM | < 5000 nM |
| Nc1ccc(Sc2nc(Nc3ccc(N4CCOCC4)cc3)ncc2Cl)cc1 [Compound 318, 4-(4-aophenylthio)-5-chloro-N-(4-morpholinophenyl)pyrimidin-2-ae] | > 1000 nM | < 100 nM | < 20000 nM |
| C=CC(=O)Nc1ccc(Sc2ccnc(Nc3cccc(N4CCCC4)c3)n2)cc1 [Compound 355, N-(4-(2-(3-(pyrrolidin-1-yl)phenylao)pyrimidin-4-ylthio)phenyl)acrylamide] | > 1000 nM | < 100 nM | < 20000 nM |
| Cc1cnc(Nc2ccc(N3CCOCC3)cc2)nc1Sc1ccc(NC(=O)COCC(=O)O)cc1 [Compound 188, 2-(2-(4-(5-methyl-2-(4-morpholinophenylao)pyrimidin-4-ylthio)phenylao)-2-oxoethoxy)acetic acid] | < 500 nM | < 100 nM | > 20000 nM |
| Cc1cnc(Nc2ccc(N3CCOCC3)cc2)nc1Sc1ccc(C#N)cc1 [Compound 136, 4-(5-methyl-2-(4-morpholinophenylao)pyrimidin-4-ylthio)benzonitrile] | > 1000 nM | < 500 nM | > 20000 nM |
| C=CC(=O)Nc1ccc(Sc2ccnc(Nc3cccc(C(=O)OC)c3)n2)cc1 [Compound 356, methyl 3-(4-(4-acrylamidophenylthio)pyrimidin-2-ylao)benzoate] | > 1000 nM | < 100 nM | < 20000 nM |
| C=CC(=O)Nc1ccc(Sc2ccnc(Nc3ccc(C#N)cc3)n2)cc1 [Compound 131, N-(4-(2-(4-cyanophenylao)pyrimidin-4-ylthio)phenyl)acrylamide] | > 1000 nM | < 100 nM | < 5000 nM |
| C=CC(=O)Nc1ccc(Sc2ccnc(Nc3ccc(S(=O)(=O)N4CCOCC4)cc3)n2)cc1 [Compound 367, N-(4-(2-(4-(morpholinosulfonyl)phenylao)pyrimidin-4-ylthio)phenyl)acrylamide] | > 1000 nM | < 100 nM | < 20000 nM |
| COc1ccc(Nc2nccc(Sc3ccc(NC(=O)CC#N)cc3)n2)cc1OC [Compound 101, 2-cyano-N-(4-(2-(3,4-dimethoxyphenylao)pyrimidin-4-ylthio)phenyl)acetamide] | > 1000 nM | > 1000 nM | < 1000 nM |
| C=CC(=O)Nc1ccc(Sc2ccnc(Nc3cccc(S(=O)(=O)NCc4ccccc4)c3)n2)cc1 [Compound 366, N-(4-(2-(3-(N-benzylsulfamoyl)phenylao)pyrimidin-4-ylthio)phenyl)acrylamide] | > 1000 nM | < 100 nM | < 20000 nM |
| CC#CC(=O)Nc1ccc(Sc2ccnc(Nc3ccc(N4CCOCC4)cc3)n2)cc1 [Compound 104, N-(4-(2-(4-morpholinophenylao)pyrimidin-4-ylthio)phenyl)but-2-ynamide] | > 1000 nM | < 100 nM | > 20000 nM |
| Cc1cnc(Nc2ccc(N3CCOCC3)cc2)nc1Sc1ccc2c(c1)CCCN2 [Compound 166, 5-methyl-N-(4-morpholinophenyl)-4-(1,2,3,4-tetrahydroquinolin-6-ylthio)pyrimidin-2-ae] | > 1000 nM | < 500 nM | < 20000 nM |
| CC(=O)Nc1ccc(Sc2ccnc(Nc3ccc(N4CCC(N5CCCC5)CC4)cc3)n2)cc1 [Compound 86, N-(4-(2-(4-(4-(pyrrolidin-1-yl)piperidin-1-yl)phenylao)pyrimidin-4-ylthio)phenyl)acetamide] | > 1000 nM | < 500 nM | < 5000 nM |
| Cc1cnc(Nc2ccc(N3CCOCC3)cc2)nc1Sc1ccc(NC(=O)/C(Br)=C\C(=O)O)cc1 [Compound 381, (E)-3-bromo-4-(4-(5-methyl-2-(4-morpholinophenylao)pyrimidin-4-ylthio)phenylao)-4-oxobut-2-enoic acid] | > 1000 nM | < 500 nM | > 20000 nM |
| C=CC(=O)Nc1ccc(Sc2nc(Nc3ccc4c(c3)OCO4)ncc2C)cc1 [Compound 284, N-(4-(2-(benzo[d][1,3]dioxol-5-ylao)-5-methylpyrimidin-4-ylthio)phenyl)acrylamide] | > 1000 nM | < 100 nM | < 20000 nM |
